Assay results from publication PMC4112151 (Bioorganic & medicinal chemistry, 2014).

Columns and labels:
KOPr [1] = target: T1, KOPr (Homo sapiens, UniProt P41145); assay: [35S]GTPγS binding, CHO membranes, standard U69593; type: biochemical; conditions: for Kd: Ke/nM KOPr, antagonist Ke versus U69593, single agonist concentration; for fold more potent as KOPr antagonist than 17-methyl equivalent: ratio of Ke: 5k vs 5b, 5i vs 5e
DOPr [2] = target: T2, DOPr (Homo sapiens, UniProt P41143); assay: [35S]GTPγS binding, CHO membranes, standard DPDPE; type: biochemical; conditions: for Kd: Ke/nM DOPr, antagonist Ke versus DPDPE, single agonist concentration
T2 sequence (P41143 whole entry): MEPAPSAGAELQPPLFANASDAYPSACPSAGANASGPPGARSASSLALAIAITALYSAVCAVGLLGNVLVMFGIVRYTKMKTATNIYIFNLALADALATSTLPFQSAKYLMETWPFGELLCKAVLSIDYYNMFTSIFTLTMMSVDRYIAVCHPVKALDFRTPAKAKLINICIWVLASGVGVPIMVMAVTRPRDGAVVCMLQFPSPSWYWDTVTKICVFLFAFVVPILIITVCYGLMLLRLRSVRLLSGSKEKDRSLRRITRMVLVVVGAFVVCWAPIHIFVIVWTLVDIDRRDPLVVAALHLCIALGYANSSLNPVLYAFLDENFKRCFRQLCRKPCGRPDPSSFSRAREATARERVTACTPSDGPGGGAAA

MOPr [3] = target: T3, MOPr (Homo sapiens, UniProt P35372); assay: [35S]GTPγS binding, CHO membranes, standard DAMGO; type: biochemical; conditions: Ke/nM MOPr, antagonist Ke versus DAMGO, single agonist concentration
T3 sequence (P35372 whole entry): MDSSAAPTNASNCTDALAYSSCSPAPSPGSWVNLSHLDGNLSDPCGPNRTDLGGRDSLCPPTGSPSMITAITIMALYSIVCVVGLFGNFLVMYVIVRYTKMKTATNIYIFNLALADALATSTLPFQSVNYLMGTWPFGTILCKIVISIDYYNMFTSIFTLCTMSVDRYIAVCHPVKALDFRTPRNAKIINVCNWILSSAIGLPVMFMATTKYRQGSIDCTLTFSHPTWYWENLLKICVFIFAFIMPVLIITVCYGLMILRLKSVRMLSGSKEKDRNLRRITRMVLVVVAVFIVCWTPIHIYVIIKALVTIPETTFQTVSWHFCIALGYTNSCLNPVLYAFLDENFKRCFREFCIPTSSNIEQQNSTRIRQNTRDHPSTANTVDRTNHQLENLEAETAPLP

KOPr [4] = target: T1, KOPr; type: binding
DOPr [5] = target: T2, DOPr; type: binding
MOPr [6] = target: T3, MOPr; type: binding
MOPr [7] = conditions: read-out: EC50 MOPr partial agonist activity in [35S]GTPγS assay; cited from earlier work
DOPr [8] = conditions: cited from earlier work
MOPr [9] = assay: Guinea pig ileum; conditions: 7b Ke in GPI (ref 8) vs 5k Ke in [35S]GTPγS assay
MOPr [10] = conditions: read-out: Ke MOPr antagonist activity in GPI assay; GPI isolated tissue; cited from earlier work

T1 sequence (P41145 whole entry): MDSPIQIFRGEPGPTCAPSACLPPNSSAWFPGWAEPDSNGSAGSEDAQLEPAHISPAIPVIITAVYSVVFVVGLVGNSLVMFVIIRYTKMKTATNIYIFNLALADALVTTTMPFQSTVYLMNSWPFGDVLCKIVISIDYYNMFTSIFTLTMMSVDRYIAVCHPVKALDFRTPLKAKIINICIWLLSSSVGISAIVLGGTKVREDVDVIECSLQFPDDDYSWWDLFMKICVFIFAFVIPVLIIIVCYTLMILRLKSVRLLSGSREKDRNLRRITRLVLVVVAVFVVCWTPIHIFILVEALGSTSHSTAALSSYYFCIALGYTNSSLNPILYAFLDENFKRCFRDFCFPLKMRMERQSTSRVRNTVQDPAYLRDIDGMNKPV

SMILES	Kd (KOPr [1]) [nM]	Kd (DOPr [2]) [nM]	Kd (MOPr [3]) [nM]	also measured
C[C@@H]1CC2=C([C@@H]3Oc4c(O)ccc5c4[C@@]34CCN(CC3CC3)[C@H](C5)[C@]4(O)C2)N(Cc2ccccc2)C1=O [5g]	0.23	0.23	0.5	–
O=C1[C@@H](CCO)CC2=C([C@@H]3Oc4c(O)ccc5c4[C@@]34CCN(CC3CC3)[C@H](C5)[C@]4(O)C2)N1Cc1ccccc1 [5j]	2.22	0.93	1.62	–
C[C@H]1CC2=C([C@@H]3Oc4c(O)ccc5c4[C@@]34CCN(CC3CC3)[C@H](C5)[C@]4(O)C2)N(Cc2ccccc2)C1=O [5h]	2.03	0.57	0.6	–
CN1CC[C@]23c4c5ccc(O)c4O[C@H]2C2=C(CCC(=O)N2Cc2ccccc2)C[C@@]3(O)[C@H]1C5 [5b]	21.3	–	–	%stim DOPr (DOPr [2]; % stimulation relative to the standard DPDPE): 94%; fold lower binding affinity at KOPr than at MOPr (KOPr [4]; ratio of Ki, KOPr vs MOPr): ~6 fold; fold lower binding affinity at DOPr than at MOPr (DOPr [5]; ratio of Ki, DOPr vs MOPr): around 3 fold
CN1C(=O)[C@@H](CCO)CC2=C1[C@@H]1Oc3c(O)ccc4c3[C@@]13CCN(C)[C@H](C4)[C@]3(O)C2 [5d]	2140	–	–	–
CN1CC[C@]23c4c5ccc(O)c4O[C@H]2C2=C(C[C@H](CCO)C(=O)N2Cc2ccccc2)C[C@@]3(O)[C@H]1C5 [5f]	16.8	–	–	–
O=C1CCC2=C([C@@H]3Oc4c(O)ccc5c4[C@@]34CCN(CC3CC3)[C@H](C5)[C@]4(O)C2)N1Cc1ccccc1 [5k, 1′-Benzyl-17-cyclopropylmethyl-6,7-didehydro-4,5-epoxy-4′,5′-dihydro-3,14-dihydroxy-pyrido[2,3: 6,7-]morphinan-6(1H)-one]	0.13	–	0.2	fold more potent as KOPr antagonist than 17-methyl equivalent (KOPr [1]): over 160 fold
O=C1CCC2=C([C@@H]3Oc4c(O)ccc5c4[C@@]34CCN(CC3CC3)[C@H](C5)[C@]4(O)C2)N1CC1CCCCC1 [5n, 1′-Cyclohexylmethyl-17-cyclopropylmethyl-6,7-didehydro-4,5-epoxy-4′,5′-dihydro-3,14-dihydroxy-pyrido[2,3: 6,7-]morphinan-6(1H)-one]	0.48	–	0.27	–
CN1CC[C@]23c4c5ccc(O)c4O[C@H]2C2=C(C[C@@H](CCO)C(=O)N2Cc2ccccc2)C[C@@]3(O)[C@H]1C5 [5e]	29.3	–	32.9	–
CCOC(=O)Cc1c2c(n(Cc3ccccc3)c1O)[C@@H]1Oc3c(O)ccc4c3[C@@]13CCN(CC1CC1)[C@H](C4)[C@]3(O)C2 [4b]	4.3	6.79	6.61	–
CN1CC[C@]23c4c5ccc(O)c4O[C@H]2c2ncccc2C[C@@]3(O)[C@H]1C5 [7a, reference compound]	–	–	–	fold lower MOPr affinity than 5b (MOPr [6]): 27 fold; fold lower KOPr affinity than 5b (KOPr [4]): 130 fold; EC50 (MOPr [7]): 3000 nM; fold lower DOPr affinity than 5b (DOPr [5]): 20 fold
CN1C(=O)CCC2=C1[C@@H]1Oc3c(O)ccc4c3[C@@]13CCN(C)[C@H](C4)[C@]3(O)C2 [5a]	392	–	–	–
CN1C(=O)[C@H](CCO)CC2=C1[C@@H]1Oc3c(O)ccc4c3[C@@]13CCN(C)[C@H](C4)[C@]3(O)C2 [5c]	321	–	–	–
Cc1[nH]c2c(c1Cc1ccccc1)C[C@@]1(O)[C@H]3Cc4ccc(O)c5c4[C@@]1(CCN3CC1CC1)[C@H]2O5 [6b]	–	–	–	DOPr antagonist selectivity over both MOPr and KOPr (DOPr [8]): 50 fold
O=C1[C@H](CCO)CC2=C([C@@H]3Oc4c(O)ccc5c4[C@@]34CCN(CC3CC3)[C@H](C5)[C@]4(O)C2)N1Cc1ccccc1 [5i]	0.73	0.47	0.35	fold more potent as KOPr antagonist than 17-methyl equivalent (KOPr [1]): 40 fold
Oc1ccc2c3c1O[C@H]1c4ncccc4C[C@@]4(O)[C@@H](C2)N(CC2CC2)CC[C@]314 [7b]	–	–	–	fold lower MOPr antagonist potency than 5k (MOPr [9]): 800 fold; Kd (MOPr [10]): 164 nM
